Results on 36 compounds are retold here after patent US9115101B2 (Genentech, Inc., priority 2012, dated 2015).

One test concerns the target T1, RORc ligand binding domain (Homo sapiens, UniProt P51449).
T1 construct: host or cells: E. coli
T1 sequence (P51449 269-508 limits assumed): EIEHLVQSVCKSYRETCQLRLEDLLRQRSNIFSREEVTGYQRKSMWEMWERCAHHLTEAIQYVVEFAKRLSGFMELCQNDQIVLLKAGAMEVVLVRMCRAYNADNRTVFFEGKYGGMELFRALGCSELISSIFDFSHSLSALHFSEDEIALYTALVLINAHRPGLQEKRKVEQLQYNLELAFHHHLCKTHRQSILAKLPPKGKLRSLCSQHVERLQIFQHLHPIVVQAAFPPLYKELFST
The test can be described thus: In Vitro RORc Ligand Binding Assay (25-[3H]hydroxycholesterol radioligand filtration). Particulars: In Vitro RORc Ligand Binding Assay; Table 4; read-out: RORc IC50.
The term IC50 denotes the concentration that inhibits the measured activity by half. On to `C[C@H]1CCC(c2ccccc2)S(=O)(=O)N1Cc1ccc(N[C@H]2CC[C@H](C#N)CC2)cc1F` (single isomer, unassigned) [Example 112], for which the IC50 turned out to be 30 nM.

On to `COc1cc(CN2[C@@H](C)CCC(c3ccccc3)S2(=O)=O)ccc1N1CCN(C(C)=O)CC1` (single isomer, unassigned) [Example 161], for which the IC50 came to 3080 nM.

For the compound `CS(=O)(=O)N1CCC(Nc2ccc(CN3CCCCC(c4ccccc4)S3(=O)=O)cc2)CC1` (single isomer, unassigned) [Example 324, [4-(1,1,-Dioxo-7-phenyl-[1,2]thiazepan-2-ylmethyl)-phenyl]-(1-methanesulfonyl-piperidin-4-yl)-amine], the IC50 is 3 nM.

As to `CC(=O)N1CCN(c2ccc(CN3C(C)CCCC(c4ccccc4)S3(=O)=O)c(F)c2)CC1` (single isomer, unassigned) [Example 329, 1-{4-[3-Fluoro-4-(3-methyl-1,1-dioxo-7-phenyl-[1,2]thiazepan-2-ylmethyl)-phenyl]-piperazin-1-yl}-ethanone], the IC50 came out at 24 nM.

`COCC(=O)N1CCN(c2ccc(CN3[C@@H](C)CCC(c4ccccc4)S3(=O)=O)c(F)c2)CC1` (single isomer, unassigned) [Example 75]: the IC50 was found to be 167 nM.

On to `CC(=O)N1CCN(c2ccc(CN3CC(C)(C)CC(c4ccccc4)S3(=O)=O)c(F)c2)CC1` (single isomer, unassigned) [Example 168, 1-{4-[4-(4,4-Dimethyl-1,1-dioxo-6-phenyl-[1,2]thiazinan-2-ylmethyl)-3-fluoro-phenyl]-piperazin-1-yl}-ethanone], for which the IC50 was 1000 nM.

`CC(=O)N1CCN(c2ccc(CN3C4CCCC4CC(c4ccccc4)S3(=O)=O)c(F)c2)CC1` (single isomer, unassigned) [Example 251, 1-(4-(4-((2,2-dioxido-3-phenylhexahydro-cyclopenta[c][1,2]thiazin-1(3H)-yl)methyl)-3-fluorophenyl)piper-azin-1-yl)ethanone]: the IC50 came to 219 nM.

`CC(=O)N1CCN(c2ccc(CN3C4CC(C4)CC(c4ccccc4)S3(=O)=O)c(F)c2)CC1` (single isomer, unassigned) [Example 301, 1-{4-[4-(3,3-Dioxo-4-pheny-3-thia-2-aza-bicyclo[4.1.1]oct-2-ylmethyl)-3-fluoro-phenyl]-piperazin-1-yl}-ethanone]: the IC50 amounted to 308 nM.

Consider `CC(=O)N1CCN(c2ccc(CN3[C@@H](C)CCC(c4ccc(C#N)cc4)S3(=O)=O)c(F)c2)CC1` (single isomer, unassigned) [Example 172], for which the IC50 came out at 1020 nM.

In the case of `Cc1ncc2n1CCN(c1ccc(CN3[C@@H](C)CCC(c4ccccc4)S3(=O)=O)c(F)c1)C2` (stereo partly drawn) [Example 374, 7-[3-Fluoro-4-((3S)-methyl-1,1-dioxo-6-phenyl-[1,2]thiazinan-2-ylmethyl)-phenyl]-3-methyl-5,6,7,8-tetrahydro-imidazo[1,5-a]pyrazine], the IC50 was 166 nM.

`CC(=O)N1CC2(C1)CN(C(=O)c1ccc(CN3[C@@H](C)CCC(c4ccccc4)S3(=O)=O)cc1)C2` (stereo partly drawn) [Example 366, 1-{6-[4-((3S)-Methyl-1,1-dioxo-6-phenyl-[1,2]thiazinan-2-ylmethyl)-benzoyl]-2,6-diaza-spiro[3.3]hept-2-yl}-ethanone]: the IC50 turned out to be 5280 nM.

Regarding `CC(=O)N1CCN(c2ccc(CN3[C@@H](C)CCC(c4ccccc4)S3(=O)=O)c(F)c2)C[C@H]1C(=O)NC(C)C` (stereo partly drawn) [Example 394, (S)-1-Acetyl-4-[3-fluoro-4-((3S)-methyl-1,1-dioxo-6-phenyl-[1,2]thiazinan-2-ylmethyl)-phenyl]-piperazine-2-carboxylic acid isopropylamide], the IC50 amounted to 3180 nM.

`C[C@H]1CCC(c2ccccc2)S(=O)(=O)N1Cc1ccc(N2CCC(c3nnc[nH]3)CC2)cc1F` (single isomer, unassigned) [Example 225]: the IC50 is 150 nM.

With `C[C@H](O)C(=O)N1CCN(c2ccc(CN3CCCCC(c4ccccc4)S3(=O)=O)c(F)c2)CC1` (single isomer, unassigned) [Example 305, 1-{4-[4-(1,1-Dioxo-7-phenyl-[1,2]thiazepan-2-ylmethyl)-3-fluoro-phenyl]-piperazin-1-yl}-2-hydroxy-propan-1-one], the half-inhibitory concentration (IC50) is 165 nM.

`CC(=O)N1CCN(c2ccc(CN3[C@@H](C)CCC(c4ccccc4F)S3(=O)=O)c(F)c2)CC1` (single isomer, unassigned) [Example 116]: the IC50 was found to be 37 nM.

Consider `C[C@H]1CCC(c2ccccc2)S(=O)(=O)N1Cc1ccc(N2CCC(n3cccn3)CC2)cc1F` (stereo partly drawn) [Example 209, (3S)-2-[2-Fluoro-4-(4-pyrazol-1-yl-piperidin-1-yl)-benzyl]-3-methyl-6-phenyl-[1,2]thiazinane 1,1-dioxide], for which the IC50 is 121 nM.

As for `CC(=O)N1CCN(c2ccc(CN3[C@@H](C)CCC(c4ccccc4Cl)S3(=O)=O)c(F)c2)CC1` (single isomer, unassigned) [Example 201], the IC50 is 183 nM.

Regarding `N#CCC(=O)N1CCN(c2ccc(CN3CCCCC(c4ccccc4)S3(=O)=O)cc2)CC1` (single isomer, unassigned) [Example 312, 3-{4-[4-(1,1-Dioxo-7-phenyl-[1,2]thiazepan-2-ylmethyl)-phenyl]-piperazin-1-yl}-3-oxo-propionitrile], the IC50 came out at 926 nM.

As to `C[C@H]1CCC(c2ccccc2)S(=O)(=O)N1Cc1ccc(C(=O)NCC2CCOC2)cc1` (stereo partly drawn) [Example 271, 4-((3S)-Methyl-1,1-dioxo-6-phenyl-[1,2]thiazinan-2-ylmethyl)-N-(tetrahydro-furan-3-ylmethyl)-benzamide], the IC50 turned out to be 1690 nM.

As for `C[C@H]1CCC(c2ccccc2)S(=O)(=O)N1Cc1ccc(C(=O)N2CCC[C@@H]2CO)cc1` (stereo partly drawn) [Example 291, (2-Hydroxymethyl-pyrrolidin-1-yl)-[4-((3S)-methyl-1,1-dioxo-6-phenyl-[1,2]thiazinan-2-ylmethyl)-phenyl]-methanone], the IC50 came out at 911 nM.

Regarding `CON(C)C(=O)C1CCN(c2ccc(CN3[C@@H](C)CCC(c4ccccc4)S3(=O)=O)c(F)c2)CC1` (single isomer, unassigned) [Example 147], the IC50 came to 1780 nM.

For `C[C@H]1CCC(c2ccccc2)S(=O)(=O)N1Cc1ccc(OC2CCN(S(C)(=O)=O)CC2)nc1` (single isomer, unassigned) [Example 35], the IC50 was 1100 nM.

On to `COc1cc(CN2[C@@H](C)CCC(c3ccccc3)S2(=O)=O)ccc1N1CCN(C(C)=O)CC1` (single isomer, unassigned) [Example 162], for which the IC50 turned out to be 812 nM.

In the case of `C[C@H]1CCC(c2ccccc2)S(=O)(=O)N1Cc1ccc(C(=O)NCC2CCOCC2)cc1` (stereo partly drawn) [Example 292, 4-((3S)-Methyl-1,1-dioxo-6-phenyl-[1,2]thiazinan-2-ylmethyl)-N-(tetrahydro-pyran-4-ylmethyl)-benzamide], the IC50 was 660 nM.

Consider `CC(=O)NCCC1CCN(C(=O)c2ccc(CN3[C@@H](C)CCC(c4ccccc4)S3(=O)=O)cc2)CC1` (stereo partly drawn) [Example 359, N-(2-{1-[4-((3S)-Methyl-1,1-dioxo-6-phenyl-[1,2]thiazinan-2-ylmethyl)-benzoyl]-piperidin-4-yl}-ethyl)-acetamide], for which the IC50 was found to be 2030 nM.

Consider `C[C@H]1CCC(c2ccccc2)S(=O)(=O)N1Cc1ccc(N2CCC(C(=O)NC#N)CC2)cc1F` (stereo partly drawn) [Example 125], for which the IC50 came out at 18 nM.

Take `C[C@H]1CCC(c2ccccc2)S(=O)(=O)N1Cc1ccc(N2CC(C3CCOCC3)C2)cc1F` (single isomer, unassigned) [Example 106]: the IC50 turned out to be 20 nM.

Turning to `C[C@H]1CCC(c2ccccc2)S(=O)(=O)N1Cc1ccc(N2CCC(c3ccn[nH]3)CC2)cc1F` (single isomer, unassigned) [Example 211], the IC50 worked out at 20 nM.

As for `CC(=O)N1CCN(c2ccc(CN3C4CCCC4CC(c4ccccc4)S3(=O)=O)c(F)c2)CC1` (single isomer, unassigned) [Example 252, 1-(4-(4-((2,2-dioxido-3-phenylhexahydro-cyclopenta[c][1,2]thiazin-1(3H)-yl)methyl)-3-fluorophenyl)piper-azin-1-yl)ethanone], the IC50 came to 68 nM.

In the case of `C[C@H]1CCC(c2ccccc2)S(=O)(=O)N1Cc1ccc(N2CCC(C(=O)O)CC2)cc1F` (stereo partly drawn) [Example 120, 1-[3-Fluoro-4-((3S)-3-methyl-1,1-dioxo-6-phenyl-[1,2]thiazinan-2-ylmethyl)-phenyl]-piperidine-4-carboxylic acid], the IC50 is 102 nM.

In the case of `COc1cccc(C2CC[C@H](C)N(Cc3ccc(N4CCN(C(C)=O)CC4)cc3F)S2(=O)=O)c1` (single isomer, unassigned) [Example 191], the IC50 came out at 116 nM.

In the case of `C[C@H]1CCC(c2ccccc2)S(=O)(=O)N1Cc1ccc(OC2CN(S(C)(=O)=O)C2)cc1F` (single isomer, unassigned) [Example 36], the IC50 came out at 71 nM.

For `C[C@H]1CCC(c2ccccc2)S(=O)(=O)N1Cc1ccc(N2CCC3(COC3)C2)cc1F` (single isomer, unassigned) [Example 102], the IC50 was found to be 25 nM.

With `N#CCC(=O)N1CCN(c2ccc(CN3CCCCC(c4ccccc4)S3(=O)=O)cc2)CC1` (single isomer, unassigned) [Example 310, 3-{4-[4-(1,1-Dioxo-7-phenyl-[1,2]thiazepan-2-ylmethyl)-phenyl]-piperazin-1-yl}-3-oxo-propionitrile], the 50% inhibitory concentration (IC50) stood at 45 nM.

For `C=C1CCC(c2ccccc2)S(=O)(=O)N(Cc2ccc(N3CCN(C(C)=O)CC3)cc2F)C1` (stereo not drawn) [Example 348, 1-{4-[3-Fluoro-4-(4-methylene-1,1-dioxo-7-phenyl-[1,2]thiazepan-2-ylmethyl)-phenyl]-piperazin-1-yl}-ethanone], the IC50 turned out to be 49 nM.

Still in this test, the particulars now being: RORc IC50.
Compound `O=S1(=O)[C@@H](c2ccccc2)CCC2(CC2)N1Cc1ccc(N2CCC(n3cnnc3)CC2)cc1F` [Example 415, (R)-4-[2-Fluoro-4-(4-[1,2,4]triazol-4-yl-piperidin-1-yl)-benzyl]-6-phenyl-5-thia-4-aza-spiro[2.5]octane 5,5-dioxide] came in with an IC50 of 37 nM.
